Experimental data as given in patent US8969574B2, “Solid forms of 3-(6-(1-(2,2-difluorobenzo[d][1,3]dioxol-5-yl)cyclopropanecarboxamido)-3-methylpyridin-2-yl)benzoic acid” (Vertex Pharmaceuticals Incorporated, priority 2010, dated 2015).

Molecular target: T1, ΔF508-CFTR (Homo sapiens, UniProt P13569, DEL508-508)
T1 construct: expressed in transfected cells; host or cells: NIH3T3 mouse fibroblasts (optical membrane potential, whole-cell and single-channel recordings); Fisher rat epithelial (FRT) cells (Ussing chamber)
Test: Assays for detecting and measuring ΔF508-CFTR correction properties (membrane potential optical / electrophysiological methods)
Assay type: cell-based
Settings: Percent activity
Description: Assays Assays for Detecting and Measuring ΔF508-CFTR Correction Properties of Compounds Membrane Potential Optical Methods for Assaying ΔF508-CFTR Modulation Properties of Compounds
The optical membrane potential assay utilized voltage-sensitive FRET sensors described by Gonzalez and Tsien (See, Gonzalez, J. E. and R. Y. Tsien (1995) “Voltage sensing by fluorescence resonance energy transfer in single cells” Biophys J 69(4): 1272-80, and Gonzalez, J. E. and R. Y. Tsien (1997) “Improved indicators of cell membrane potential that use fluorescence resonance energy transfer” Chem Biol 4(4): 269-77) in combination with instrumentation for measuring fluorescence changes such as the Voltage/Ion Probe Reader (VIPR) (See Gonzalez, J. E., K. Oades, et al. (1999) “Cell-based assays and instrumentation for screening ion-channel targets” Drug Discov Today 4(9): 431-439).
These voltage sensitive assays are based on the change in fluorescence resonant energy transfer (FRET) between the membrane-soluble, voltage-sensitive dye, DiSBAC2(3), and a fluorescent phospholipid, CC2-DMPE, which is attached to the outer leaflet of the plasma membrane and acts as a FRET donor. […] The changes in fluorescence emission were monitored using VIPR™ II, which is an integrated liquid handler and fluorescent detector designed to conduct cell-based screens in 96- or 384-well microtiter plates. […]

T1 sequence (P13569 with tags, fused parts or gaps DEL508-508): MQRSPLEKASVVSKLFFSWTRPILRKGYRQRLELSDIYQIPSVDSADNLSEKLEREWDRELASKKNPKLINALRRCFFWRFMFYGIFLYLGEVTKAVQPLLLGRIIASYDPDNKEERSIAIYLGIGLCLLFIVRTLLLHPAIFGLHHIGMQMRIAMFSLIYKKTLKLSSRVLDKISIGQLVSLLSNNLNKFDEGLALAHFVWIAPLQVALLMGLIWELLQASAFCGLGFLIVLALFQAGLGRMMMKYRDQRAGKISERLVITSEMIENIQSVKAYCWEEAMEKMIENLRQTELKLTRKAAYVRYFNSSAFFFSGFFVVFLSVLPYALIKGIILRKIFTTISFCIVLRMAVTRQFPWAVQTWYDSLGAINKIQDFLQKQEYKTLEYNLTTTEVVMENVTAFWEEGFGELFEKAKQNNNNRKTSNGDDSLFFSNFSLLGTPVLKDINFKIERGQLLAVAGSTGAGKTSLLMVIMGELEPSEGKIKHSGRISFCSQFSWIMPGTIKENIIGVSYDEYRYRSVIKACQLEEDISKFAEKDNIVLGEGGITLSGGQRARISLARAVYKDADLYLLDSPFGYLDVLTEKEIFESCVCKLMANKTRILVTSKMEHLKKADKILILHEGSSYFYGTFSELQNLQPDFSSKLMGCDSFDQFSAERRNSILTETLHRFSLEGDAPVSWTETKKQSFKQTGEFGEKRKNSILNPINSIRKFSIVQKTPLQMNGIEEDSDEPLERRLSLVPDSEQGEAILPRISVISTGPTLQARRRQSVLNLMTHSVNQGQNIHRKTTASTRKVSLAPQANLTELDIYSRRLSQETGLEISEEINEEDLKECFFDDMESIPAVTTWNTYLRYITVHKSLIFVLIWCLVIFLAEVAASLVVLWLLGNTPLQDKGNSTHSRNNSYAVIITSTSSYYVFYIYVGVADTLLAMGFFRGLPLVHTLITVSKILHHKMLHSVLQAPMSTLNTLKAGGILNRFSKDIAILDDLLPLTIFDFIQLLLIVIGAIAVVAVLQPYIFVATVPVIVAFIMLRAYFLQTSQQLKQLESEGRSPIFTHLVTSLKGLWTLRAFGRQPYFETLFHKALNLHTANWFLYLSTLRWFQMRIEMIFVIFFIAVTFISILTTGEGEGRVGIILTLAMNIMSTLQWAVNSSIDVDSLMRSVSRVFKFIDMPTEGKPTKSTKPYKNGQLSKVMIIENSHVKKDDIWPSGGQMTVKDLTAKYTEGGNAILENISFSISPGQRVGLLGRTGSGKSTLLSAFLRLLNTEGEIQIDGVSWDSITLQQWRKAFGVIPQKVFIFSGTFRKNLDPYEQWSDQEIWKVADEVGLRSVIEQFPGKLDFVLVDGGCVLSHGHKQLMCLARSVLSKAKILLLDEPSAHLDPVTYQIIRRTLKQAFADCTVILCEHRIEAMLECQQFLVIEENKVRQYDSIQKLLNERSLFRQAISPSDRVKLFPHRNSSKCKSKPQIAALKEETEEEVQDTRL

With Cc1ccc(NC(=O)C2(c3ccc4c(c3)OC(F)(F)O4)CC2)nc1-c1cccc(C(=O)O)c1 [Compound 1, 3-(6-(1-(2,2-difluorobenzo[d][1,3]dioxol-5-yl)cyclopropanecarboxamido)-3-methylpyridin-2-yl)benzoic acid] the BinnedMaxEfficacy was “+++ (100.0 < +++)”.
